In patent US20250306008A1, “PHARMACEUTICAL COMPOSITION FOR TREATING OR PREVENTING MALIGNANT BREAST CANCER” (KOREA ADVANCED INSTITUTE OF SCIENCE AND TECHNOLOGY, priority 2021, published 2025):

Assays:
BT20 cells = experiment: Tamoxifen drug response (Incucyte confluency) after BCL11A and HDAC1/2 inhibition; assay type: cell-based; conditions: tamoxifen 10 uM
Procedure: (§1) Briefly, it is as follows: Cells were plated in 1×10^4 cells (3 repetitions for each condition; triplicate), after 24 hours, the cells were treated with the tamoxifen drug (10 uM) and monitored by taking pictures at 3-hour intervals using Incucyte for 72 hours. After that, the confluency of the cells in the pictures was calculated and the sensitivity of the cells to various drugs was graphed.

MDA-MB231 cells = experiment: as above; assay type: cell-based; conditions: tamoxifen 10 uM
Procedure: as §1

T47D cell line = experiment: Tamoxifen drug response after BCL11A and HDAC1/2 overexpression; assay type: cell-based, human
Text: The present inventors confirmed the tamoxifen drug response in human breast cancer cell lines T47D and MCF7 upon overexpression (OE) of BCL11A and HDAC1/2.

breast cancer patients = experiment: Patients' drug response to tamoxifen according to BCL11A and HDAC1/2 expression; design: species or system human; conditions: patient group with low expression of BCL11A and HDAC1/2 compared to the group with high expression

Row | Compound | sensitivity of treated cells to Tamoxifen (cell confluency) (BT20 cells; BT20, monitored 72 hours) | sensitivity of treated cells to Tamoxifen (cell confluency) (MDA-MB231 cells; MDA-MB231, monitored 72 hours) | sensitivity of control cells (shScrambled) to Tamoxifen (BT20 cells; BT20 control cells (shScrambled), 72 hours) | sensitivity of control cells (shScrambled) to Tamoxifen (MDA-MB231 cells; MDA-MB231 control cells (shScrambled), 72 hours) | sensitivity to tamoxifen of overexpressing cells (T47D cell line; T47D cells overexpressing BCL11A-OE, HDAC1/2-OE, or both) | response of control cells to tamoxifen (T47D cell line; T47D control cells) | sensitivity of patient group to the tamoxifen drug (breast cancer patients)
1 | shBCL11A: shRNA (GCATAGACGATGGCACTGTTA; SEQ ID NO: 1) designed to target the BCL11A gene, used as the BCL11A inhibitor | some sensitivity | some sensitivity | – | – | – | – | –
2 | CC/C(=C(\c1ccccc1)c1ccc(OCCN(C)C)cc1)c1ccccc1 [Tamoxifen, tamoxifen] | – | – | did not show sensitivity | did not show sensitivity | did not show sensitivity | responded | higher sensitivity
